Data published in patent US20250375464A1, “FORMULATIONS FOR MODULATING MYC EXPRESSION” (FLAGSHIP PIONEERING INNOVATIONS V, INC., priority 2022, published 2025).

Assays:
SKHEP1 tumors = assay: SKHEP1 subcutaneous xenograft in nude mice; format: in vivo; details: 50 mg/kg orally daily
Protocol: Animals were dosed every 5 days.
Sorafenib was given daily at 50 mg/kg.

Hep 3B tumors = assay: Hep 3B subcutaneous xenograft in nude mice, tumor volume
Protocol: In this example, 0.6 mg/ml LNP (MC3) formulated effector (dCas9-MQ1/GD-17) was delivered to tumor sites by intratumoral injection on day 1 and day 7 (20 μl/mice) in the test group animals. The control group mice were injected at the tumor site either with PBS or with 0.6 mg/ml LNP (MC3) control effector dCas9/GD-SafeHarbor (20 μl/mice). Each control and test group consisted of 6 animals having SubQ Hep3B Xenografts (250 mm^3). Changes in tumor volume for each group was measured every 3 days for 15 days. At the end of 15 days, the changes in mean tumor volume were measured using Paired T-test and was plotted.
(§1) Hep 3B tumor cells were implanted into the left flank of thirty female nude mice to induce tumor. Changes in tumor volume was measured and the treatment initiated when mean tumor volume reached approximately 100-150 mm^3. Mice were divided into treatment and control groups so that mean tumor volume in each group were approximately equal. Control groups were injected either with PBS or with MYCi975, a small molecule comparator. The mice in each group were injected intratumorally with PBS (every 5 days for 3 doses then switched to IV for 2 doses), intravenously with ZF9-MQ1 (every 5 days at 3 mg/kg) or intraperitoneally with MYCi975 (once daily for 5 days/week). All animals were weighed daily and assessed visually. Changes in tumor volume for each group were measured 3 times per week. Over the course of 22 days, the changes in body weight from baseline and the mean tumor volume were measured using Paired T-test and was plotted (FIG. 14A-B).
Hep 3B tumor cells were implanted into the left flank of seventy-two female nude mice to induce tumor. Changes in tumor volume was measured and the treatment initiated when mean tumor volume reached approximately 200 mm^3. Mice were divided into nine treatment groups (8 mice each) so that mean tumor volume in each group was approximately equal. The mice in each group were injected intravenously with PBS (every 5 days for 3 doses then every 3 days for 3 doses), ZF9-MQ1 at 1 mg/kg and 3 mg/kg (every 5 days for 3 doses then every 3 days for 3 doses), co-formulated ZF9-MQ1+ZF3-KRAB at 1 mg/kg and 3 mg/kg (every 5 days for 3 doses then every 3 days for 3 doses), negative control mRNA at 1 mg/kg and 3 mg/kg (every 5 days for 3 doses then every 3 days for 3 doses), intraperitoneal with MYCi975 at 100 mg/kg (once daily for 5 days per week) or intraperitoneal with cisplatin at 1 mg/kg (once every 15 days). All animals were weighed daily and assessed visually. Changes in tumor volume were measured 3 times per week.
Disease was induced in female nude mice by the implantation of Hep 3B tumor cells into the left flank. […] All animals were weighed daily and assessed visually. Tumors sizes were measured 3 times per week. […]

Hep3B-luc tumors = assay: Orthotopic Hep3B-luc model, tumor bioluminescence; format: in vivo, mice (Fox Chase CB17 SCID; nude); details: nude mice
Protocol: Tumor progression was measured by luminescence. […] It is unclear whether this is related to treatment. […] Statistically significant differences were observed between treatment groups.
Sorafenib was given orally (PO) daily (QD) as a standard of care control. Tumor progression was measured by luminescence. No animal deaths were noted.

[1] = Body weight and tolerability of tumor bearing mice
Protocol: as §1
All animals were weighed daily and assessed visually.

[2] = Overall animal (body) weight in the tumor studies (FIGS. 14-16, 20); format: in vivo, mice; details: doses as in the respective tumor study
HEPG2 tumors = assay: HepG2 subcutaneous xenograft in nude mice; format: in vivo; parameters: dose or concentration left out as unconfirmed

SMILES: CNC(=O)c1cc(Oc2ccc(NC(=O)Nc3ccc(Cl)c(C(F)(F)F)c3)cc2)ccn1 [sorafenib]
- tumor growth (SKHEP1 tumors): statistically significant reduction in tumor growth
- tumor growth relative to PBS controls (Hep 3B tumors; 50 mg/kg orally every day (Example 35)): statistically significant reduction in tumor growth
- tumor growth relative to PBS controls (Hep 3B tumors; Example 40, 50 mg/kg orally daily): statistically significant reduction in tumor growth
- tumor growth relative to PBS control (Hep 3B tumors; Example 43, 25 mg/kg QD alone, 16 days): did not significantly reduce tumor growth
- tumor luminescence relative to PBS controls (Hep3B-luc tumors; Example 45, 50 mg/kg orally daily): statistically significant reduction in tumor luminescence
- tumor luminescence relative to PBS controls (Hep3B-luc tumors; Example 46, 50 mg/kg PO QD): statistically significant reduction in tumor luminescence
- weight gain ([1]; SK-HEP-1 subcutaneous, 50 mg/kg orally daily): Statistically significant reductions in weight gain
- body weight ([1]; orthotopic Hep3B-luc, SCID mice, ZF9-MQ1+ZF3-KRAB 1.5-6 mg/kg every 5 days, sorafenib 50 mg/kg daily orally): initial drop in body weight
- overall animal (body) weight, result in words [2]: initial drop in body weight with a later gain in overall body weight
- tumor growth (HEPG2 tumors): statistically significant reduction in tumor growth

SMILES: Cc1sc2c(c1C)C(c1ccc(Cl)cc1)=N[C@@H](CC(=O)OC(C)(C)C)c1nnc(C)n1-2 [JQ1]
- increase in tumor volume (Hep 3B tumors; Example 44, 25 mg/kg alone, 12 days): did not significantly inhibit
